Earlier results as cited in patent US10995093B2, “Synthesis of 2′-fluoro-6′-methylene-carbocyclic adenosine (FMCA) and 2′-fluoro-6′methylene-carbocyclic guanosine (FMCG)” (UNIVERSITY OF GEORGIA RESEARCH FOUNDATION, INC., priority 2016, dated 2021).
“Also recorded” adds a separate entry of the source.

Key:
[1] = test system: wild-type HBV
[2] = no significant toxicity observed up to 100 μM
[3] = test system: lamivudine/entecavir-resistant clone (L180M+M204V+S202G)
[4] = test system: lamivudine, adefovir, and double lamivudine/entecavir-resistant mutants; details: drug-resistant mutants

C=C1[C@@H](n2cnc3c(N)ncnc32)[C@@H](F)[C@H](O)[C@H]1CO [FMCA, (1R,3R,5R)-3-(6-amino-9H-purin-9-yl)-2-fluoro-5-(hydroxymethyl)-4-methylenecyclopentanol]
activity against wild-type HBV [1]: significant activity; also recorded: potential antiviral activity
mitochondrial and cellular toxicity, concentration up to which no significant toxicity was observed [2]: > 100 µM
antiviral activity against lamivudine/entecavir-resistant clone [3]: potential antiviral activity
activity against lamivudine, adefovir, and double lamivudine/entecavir-resistant mutants [4]: significant activity
